Columns and labels:
Human LBAT = target: T1, Human LBAT (Homo sapiens, UniProt Q14973); assay: LBAT (h/m) assay, human LBAT-overexpressing cells, 3H-taurocholic acid uptake; assay type: cell-based; conditions: 0.3 μM 3H-taurocholic acid and 7.5 μM cold taurocholic acid, 20 minutes, read-out: hLBAT IC50
T1 construct: expressed in transfected cells; Geneticin-selected
T1 sequence (Q14973 1-349): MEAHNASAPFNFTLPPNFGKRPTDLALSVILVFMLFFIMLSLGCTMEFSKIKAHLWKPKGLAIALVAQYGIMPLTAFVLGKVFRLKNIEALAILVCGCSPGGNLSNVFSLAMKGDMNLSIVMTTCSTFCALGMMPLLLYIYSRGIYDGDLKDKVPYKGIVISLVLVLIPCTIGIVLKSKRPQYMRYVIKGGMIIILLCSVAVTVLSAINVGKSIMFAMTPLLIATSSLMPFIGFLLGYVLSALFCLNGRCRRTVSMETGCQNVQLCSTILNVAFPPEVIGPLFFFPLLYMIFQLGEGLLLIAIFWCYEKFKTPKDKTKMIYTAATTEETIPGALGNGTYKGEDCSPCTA
In short: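 Human LBAT-overexpressing cells, washed in FBS-free MEM-alpha, incubated 20 min at 37 °C with 10-point 3-fold inhibitor dilutions (0.2% DMSO final), 0.3 μM 3H-taurocholic acid plus 7.5 μM cold taurocholic acid (mouse LBAT: 25 μM cold). Ice stop, chilled 1 mM taurocholate washes; uptake read by scintillation counting.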

Human IBAT = target: T2, Human IBAT (Homo sapiens, UniProt Q12908); assay: IBAT (h/m) assay, human IBAT-overexpressing cells, 3H-taurocholic acid uptake; assay type: cell-based; conditions: 0.25 μM 3H-taurocholic acid and 5 μM cold taurocholic acid, 20 minutes, read-out: hIBAT IC50
T2 construct: expressed in transfected cells; Puromycin-selected
T2 sequence (Q12908 1-348): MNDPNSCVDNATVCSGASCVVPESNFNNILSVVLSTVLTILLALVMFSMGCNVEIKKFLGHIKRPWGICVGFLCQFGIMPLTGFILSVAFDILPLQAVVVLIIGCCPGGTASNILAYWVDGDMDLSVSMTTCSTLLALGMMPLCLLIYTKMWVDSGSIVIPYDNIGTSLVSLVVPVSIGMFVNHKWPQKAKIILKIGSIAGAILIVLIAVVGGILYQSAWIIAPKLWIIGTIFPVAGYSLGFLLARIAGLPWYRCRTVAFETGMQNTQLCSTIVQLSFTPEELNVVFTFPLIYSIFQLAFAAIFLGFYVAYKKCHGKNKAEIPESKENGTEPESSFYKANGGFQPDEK
In short: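 Human or mouse IBAT-overexpressing cells, seeded 48 h before the assay, were incubated 20 min at 37 °C with 0.25 μM 3H-taurocholic acid plus 5 μM cold taurocholic acid and inhibitor (10-point 3-fold series from 10 μM top, 0.2% DMSO final), in duplicate. After ice stop and washes with 1 mM cold taurocholate, uptake was read by scintillation counting.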

SMILES | IC50 (Human LBAT) [µM] | IC50 (Human IBAT) [µM]
CCCCC1(C)CN(c2ccccc2)c2cc(SC)c(OCCC(=O)O)cc2S(=O)(=O)C1 (single isomer, unassigned) [Example 24, 3-((3-butyl-3-methyl-7-(methylthio)-1,1-dioxido-5-phenyl-2,3,4,5-tetrahydro-1,5-benzothiazepin-8-yl)oxy)propanoic acid] | 0.596 | 0.007
CCCCC1(CC)CN(c2ccccc2)c2cc(Br)c(OCCC(=O)O)cc2S(=O)(=O)C1 (single isomer, unassigned) [Example 2, 3-((7-bromo-3-butyl-3-ethyl-1,1-dioxido-5-phenyl-2,3,4,5-tetrahydro-1,5-benzothiazepin-8-yl)oxy)propanoic acid] | 0.375 | 0.006
CCCCC1(CCCC)CN(c2ccccc2)c2cc(SC)c(OCC(O)C(=O)O)cc2S(=O)(=O)C1 (racemic) [Example 9, 3-((3,3-Dibutyl-7-(methylthio)-1,1-dioxido-5-phenyl-2,3,4,5-tetrahydro-1,5-benzothiazepin-8-yl)oxy)-2-hydroxypropanoic acid] | 0.396 | 0.003
CCCCC1(CCCC)CN(c2ccccc2)c2cc(Br)c(OCCC(=O)O)cc2S(=O)(=O)C1 [Example 4, 3-((7-Bromo-3,3-dibutyl-1,1-dioxido-5-phenyl-2,3,4,5-tetrahydro-1,5-benzothiazepin-8-yl)oxy)propanoic acid] | 0.375 | 0.026
CCCCC1(CC)CN(c2ccccc2)c2cc(Cl)c(OC(C)CC(=O)O)cc2S(=O)(=O)C1 (single isomer, unassigned) [30, diastereomer 1] | 0.283 | 0.022
CCCCC1(C)CN(c2ccccc2)c2cc(N(C)C)c(OCCC(=O)O)cc2S(=O)(=O)C1 (single isomer, unassigned) [29, enantiomer 1] | 2.59 | 0.005
CCCCC1(CC)CN(c2ccccc2)c2cc(Cl)c(OCCC(=O)O)cc2S(=O)(=O)C1 (single isomer, unassigned) [Example 6, 3-((3-butyl-7-chloro-3-ethyl-1,1-dioxido-5-phenyl-2,3,4,5-tetrahydro-1,5-benzothiazepin-8-yl)oxy)propanoic acid] | 0.41 | 0.017
CCCCC1(CC)CN(c2ccccc2)c2cc(Br)c(OCCC(=O)O)cc2S(=O)(=O)C1 (racemic) [Example 1, 3-((7-Bromo-3-butyl-3-ethyl-1,1-dioxido-5-phenyl-2,3,4,5-tetrahydro-1,5-benzothiazepin-8-yl)oxy)propanoic acid] | 2.17 | 0.018
CCCCC1(C)CN(c2ccccc2)c2cc(SC)c(OCC(O)C(=O)O)cc2S(=O)(=O)C1 (single isomer, unassigned) [32, diastereomer 1] | 2.95 | 0.003

More lines, now with the values ahead:

IC50 (Human LBAT) [µM] | IC50 (Human IBAT) [µM] | SMILES
0.155 | 0.016 | CCCCC1(CC)CN(c2ccccc2)c2cc(SC)c(OCC(C)(O)C(=O)O)cc2S(=O)(=O)C1 (single isomer, unassigned) [48, diastereomer 2]
0.048 | 0.004 | CCCCC1(CC)CN(c2ccccc2)c2cc(SC)c(OCC(C)(F)C(=O)O)cc2S(=O)(=O)C1 (single isomer, unassigned) [35, diastereomer 1]
0.379 | 0.001 | CCCCC1(CCCC)CN(c2ccccc2)c2cc(SC)c(OCC(O)C(=O)O)cc2S(=O)(=O)C1 (single isomer, unassigned) [Example 10, 3-((3,3-dibutyl-7-(methylthio)-1,1-dioxido-5-phenyl-2,3,4,5-tetrahydro-1,5-benzothiazepin-8-yl)oxy)-2-hydroxypropanoic acid]
0.613 | 0.004 | CCCCC1(CCCC)CN(c2ccccc2)c2cc(SC)c(OCC(O)C(=O)O)cc2S(=O)(=O)C1 (single isomer, unassigned) [Example 11, 3-((3,3-dibutyl-7-(methylthio)-1,1-dioxido-5-phenyl-2,3,4,5-tetrahydro-1,5-benzothiazepin-8-yl)oxy)-2-hydroxypropanoic acid]
0.028 | 0.012 | CCCCC1(CC)CN(c2ccccc2)c2cc(SC)c(OCC(C)(F)C(=O)O)cc2S(=O)(=O)C1 (centres unmarked) [Example 34, 3-((3-butyl-3-ethyl-7-(methylthio)-1,1-dioxido-5-phenyl-2,3,4,5-tetrahydro-1,5-benzothiazepin-8-yl)oxy)-2-fluoro-2-methylpropanoic acid]
1.93 | 0.032 | CCCCC1(CCCC)CN(c2ccccc2)c2cc(SC)c(OCCC(=O)O)cc2S(=O)(=O)C1 [Example 15, 3-((3,3-dibutyl-7-(methylthio)-1,1-dioxido-5-phenyl-2,3,4,5-tetrahydro-1,5-benzothiazepin-8-yl)oxy)propanoic acid]
0.489 | 0.004 | CCCCC1(CC)CN(c2ccccc2)c2cc(SC)c(OCCC(=O)O)cc2S(=O)(=O)C1 (single isomer, unassigned) [Example 13, 3-((3-butyl-3-ethyl-7-(methylthio)-1,1-dioxido-5-phenyl-2,3,4,5-tetrahydro-1,5-benzothiazepin-8-yl)oxy)propanoic acid]
